Source: ChEMBL document CHEMBL1136842, “5-Nitrofuran-2-yl derivatives: synthesis and inhibitory activities against growing and dormant mycobacterium species” (Bioorg Med Chem Lett, 2009)
≈ marks a conversion by molar mass, not a printed value.

These compounds were tested on Mycobacterium tuberculosis variant microti (assay: Antimycobacterial activity against Mycobacterium microti MTCC 1727 by agar dilution method).
Type: functional

| SMILES | MIC |
| --- | --- |
| CO[C@H]1/C=C/O[C@@]2(C)Oc3c(C)c(O)c4c(O)c(c(/C=N/N5CCN(C)CC5)c(O)c4c3C2=O)NC(=O)/C(C)=C\C=C\[C@H](C)[C@H](O)[C@@H](C)[C@@H](O)[C@@H](C)[C@H](OC(C)=O)[C@@H]1C [RIFAMPIN] | 30.4 µM (≈ 25 µg/mL) |
| O=[N+]([O-])c1ccc(/C=N/NC(=S)Nc2ncc(Br)cc2Br)o1 | 6.9 µM (≈ 3.1 µg/mL) |
| O=C(O)c1cn(C2CC2)c2cc(N3CCNCC3)c(F)cc2c1=O [CIPROFLOXACIN] | 2.35 µM (≈ 0.779 µg/mL) |
| Cc1ccnc(NC(=S)N/N=C/c2ccc([N+](=O)[O-])o2)c1 | 20.5 µM (≈ 6.26 µg/mL) |
| COc1ccc(NC(=S)N/N=C/c2ccc([N+](=O)[O-])o2)c(OC)c1 | 17.8 µM (≈ 6.24 µg/mL) |
| COc1ccc(NC(=S)N/N=C/c2ccc([N+](=O)[O-])o2)cc1 | 78 µM (≈ 25 µg/mL) |
| Cc1cc(C)nc(NC(=S)N/N=C/c2ccc([N+](=O)[O-])o2)c1 | 39.1 µM (≈ 12.5 µg/mL) |
| NNC(=O)c1ccncc1 [ISONIAZID] | 22.8 µM (≈ 3.13 µg/mL) |
| O=[N+]([O-])c1ccc(/C=N/NC(=S)Nc2ccc(Cl)cc2)o1 | 38.4 µM (≈ 12.5 µg/mL) |
| Cc1cccc(C)c1NC(=S)N/N=C/c1ccc([N+](=O)[O-])o1 | 78.5 µM (≈ 25 µg/mL) |
| O=[N+]([O-])c1ccc(/C=N/NC(=S)Nc2ccccc2Br)o1 | 67.1 µM (≈ 24.8 µg/mL) |
| NS(=O)(=O)c1ccc(NC(=S)N/N=C/c2ccc([N+](=O)[O-])o2)cc1 | 67.6 µM (≈ 25 µg/mL) |
| Cc1ccc(C)c(NC(=S)N/N=C/c2ccc([N+](=O)[O-])o2)c1 | 157 µM (≈ 50 µg/mL) |
| Cc1ccc(NC(=S)N/N=C/c2ccc([N+](=O)[O-])o2)cc1 | 20.5 µM (≈ 6.24 µg/mL) |
| Cc1ccc(NC(=S)N/N=C/c2ccc([N+](=O)[O-])o2)c(C)c1 | 78.5 µM (≈ 25 µg/mL) |
| CCc1cccc(CC)c1NC(=S)N/N=C/c1ccc([N+](=O)[O-])o1 | 72.1 µM (≈ 25 µg/mL) |
| O=[N+]([O-])c1ccc(/C=N/NC(=S)Nc2ccccn2)o1 | 48.4 µM (≈ 14.1 µg/mL) |
| Cc1cccnc1NC(=S)N/N=C/c1ccc([N+](=O)[O-])o1 | 10.2 µM (≈ 3.11 µg/mL) |
| O=[N+]([O-])c1ccc(/C=N/NC(=S)Nc2ccc(Cl)cn2)o1 | 38.3 µM (≈ 12.5 µg/mL) |
| O=[N+]([O-])c1ccc(/C=N/NC(=S)Nc2ccccc2)o1 | 86.1 µM (≈ 25 µg/mL) |
